Measurements from patent US20240398787A1, “TREATMENT OF MAJOR DEPRESSIVE DISORDER” (AbbVie Inc., priority 2021, published 2024).

Legend:
Format in all cases: in vivo, human
[1] = system: patients with major depressive disorder (MDD); assay: Clinical Global Impressions-Improvement (CGI-I) score and response, Clinical Study A; details: for CGI-I response rate (score ≤2): LOCF; for CGI-I LS Mean (change from baseline to week 6) / LSMD vs placebo, CGI-I: MMRM
Experimental: (§1) A global, multicenter, randomized, double-blind (DB), placebo-controlled, parallel-group, fixed-dose study compared cariprazine 1.5 mg/day and cariprazine 3 mg/day with placebo as an adjunctive treatment to ongoing ADT in outpatients with a diagnosis of MDD (via the Diagnostic and Statistical Manual of Mental Disorders, Fifth Edition [DSM-5]) having an inadequate response, as measured by the modified Antidepressant Treatment Response Questionnaire (ATRQ), to 1 to 3 antidepressants administered during the current episode at an adequate dose and adequate duration. Adequate dose was defined as a dose above the minimum labeled dose (per package insert). Adequate duration was defined as continuous ADT treatment for at least 6 weeks, with a minimum of 3 of 6 weeks above the minimal dose.
(§2) The study consisted of up to 14 days screening (with up to an additional 7 days of needed) and washout of prohibited medications followed by 6 weeks of double-blind (DB) treatment followed by a 4-week safety follow-up. At the end of the screening period, patients meeting the entry criteria for the study were randomized (1:1:1) to 1 of 3 double-blind treatment groups. Study treatment groups were: cariprazine 1.5 mg/day+antidepressant therapy and cariprazine 3 mg/day+antidepressant therapy. The control group received matching placebo+antidepressant therapy.
(§3) Dosage/Dose Regimen: Investigational product (cariprazine or placebo) in the form of capsules packaged in blister packs will be provided. No investigational product was administered during the screening/washout period; patients continued the same antidepressant and dose they were on at screening. Patients were taking more than one antidepressant at screening, regardless of the indication, discontinued all other antidepressants prior to baseline (Visit 2). During the double-blind treatment period (6 weeks), patients were administered 1 capsule orally per day in addition to their ongoing ADT. Patients in the 1.5 mg/day+ADT arm were administered 1.5 mg+ADT starting at Visit 2 (Week 0). Patients in the 3 mg/day+ADT arm were administered 1.5 mg+ADT starting at Visit 2 (Week 0) for 2 weeks and then titrate to 3 mg/day+ADT starting at Visit 4 (Week 2). Patients were supplied with identically appearing capsules of either cariprazine 1.5 mg, cariprazine 3 mg, or placebo.
A randomized, double-blind, placebo-controlled, multicenter trial with 759 participants was conducted in United States, Bulgaria, Estonia, Germany, Hungary, Ukraine, and the United Kingdom. Following a screening period of up to 14 days (with up to an additional 7 days if needed), which included a washout of prohibited psychotropic medications except for ongoing ADT, patients with a partial response to their antidepressant monotherapy were randomized into three treatment groups (1:1:1). One group received cariprazine 1.5 mg/d+ADT, one received cariprazine 3.0 mg/d+ADT, and one group received placebo+ADT. All participants randomized to cariprazine began on 1.5 mg/d; cariprazine 1.5 mg/d patients remained at that dosage, while cariprazine 3.0 mg/d patients received 1.5 mg/d for 2 weeks and increased to 3.0 mg/d on day 15.
The primary and secondary efficacy parameters were change from baseline to week 6 in Montgomery-Åsberg Depression Rating Scale (MADRS) total score and Clinical Global Impressions-Severity (CGI-S) score, respectively (screening, baseline, and weeks 1, 2, 4, and 6). Additional efficacy parameters (screening, baseline, and ≥1 double-blind visit) included: MADRS response (≥50% MADRS total score reduction) and remission (MADRS total score ≤10); change from baseline in HAMD-17 total score and Hamilton Anxiety Rating Scale (HAM-A) total score (32); and Clinical Global Impressions-Improvement (CGI-I) score and response (CGI-I score ≤2). […]

[2] = system: patients with major depressive disorder (MDD); assay: Hamilton Depression Rating Scale-17 (HAMD-17) total score, Clinical Study A; details: ANCOVA and LOCF; for LSMD vs placebo, HAMD-17: week 6
Experimental: as §1, §2, §3
(§4) A randomized, double-blind, placebo-controlled, multicenter trial with 759 participants was conducted in United States, Bulgaria, Estonia, Germany, Hungary, Ukraine, and the United Kingdom. […]

[3] = Weight changes, Clinical Study A
Experimental: as §1, §2, §3, §4

In the case of `CN(C)C(=O)N[C@H]1CC[C@H](CCN2CCN(c3cccc(Cl)c3Cl)CC2)CC1` [Cariprazine, trans-N-{4-[2-[4-(2,3-dichlorophenyl)piperazin-1-yl]ethyl]cyclohexyl}-N′,N′-dimethylurea], the “CGI-I response rate (score ≤2)” value ([1]; 1.5 mg/d + ADT, week 6) is reported as 51.2%, the “CGI-I LS Mean (change from baseline to week 6)” value ([1]; 1.5 mg/d + ADT, week 6) is reported as 2.6 and the “LSMD vs placebo, CGI-I” value ([1]; 1.5 mg/d + ADT, week 6) is reported as −0.3. For the same compound, the “CGI-I responders (score ≤2)” value ([1]; 1.5 mg/day + ADT, week 1) was 29 (11.6) n (%), the “CGI-I response, odds ratio vs placebo (95% CI)” value ([1]; 1.5 mg/day + ADT, week 1) was 2.0 (1.0, 3.8) and the “CGI-I responders (score ≤2)” value ([1]; 1.5 mg/day + ADT, week 2) was 67 (26.8) n (%). The “CGI-I response, odds ratio vs placebo (95% CI)” value ([1]; 1.5 mg/day + ADT, week 2) was 1.4 (0.9, 2.1), the “CGI-I responders (score ≤2)” value ([1]; 1.5 mg/day + ADT, week 4) was 115 (46.0) n (%) and the “CGI-I response, odds ratio vs placebo (95% CI)” value ([1]; 1.5 mg/day + ADT, week 4) was 1.6 (1.1, 2.3). The “CGI-I responders (score ≤2)” value ([1]; 1.5 mg/day + ADT, week 6) was 128 (51.2) n (%), the “CGI-I response rate (score ≤2)” value ([1]; 3.0 mg/d + ADT, week 6) was 50.4% and the “CGI-I LS Mean (change from baseline to week 6)” value ([1]; 3 mg/d + ADT, week 6) was 2.6. For the same compound, the “LSMD vs placebo, CGI-I” value ([1]; 3 mg/d + ADT, week 6) was −0.3, the “CGI-I responders (score ≤2)” value ([1]; 3 mg/day + ADT, week 1) was 20 (7.9) n (%) and the “CGI-I response, odds ratio vs placebo (95% CI)” value ([1]; 3 mg/day + ADT, week 1) was 1.3 (0.6, 2.6). For the same compound, the “CGI-I responders (score ≤2)” value ([1]; 3 mg/day + ADT, week 2) was 62 (24.6) n (%), the “CGI-I response, odds ratio vs placebo (95% CI)” value ([1]; 3 mg/day + ADT, week 2) was 1.2 (0.8, 1.9) and the “CGI-I responders (score ≤2)” value ([1]; 3 mg/day + ADT, week 4) was 102 (40.5) n (%). The “CGI-I response, odds ratio vs placebo (95% CI)” value ([1]; 3 mg/day + ADT, week 4) was 1.3 (0.9, 1.8), the “CGI-I responders (score ≤2)” value ([1]; 3 mg/day + ADT, week 6) was 127 (50.4) n (%) and the “LS mean change from baseline to week 6, HAMD-17 total score” value ([2]; 1.5 mg/d + ADT) was −12.7. For the same compound, the “LSMD vs placebo, HAMD-17” value ([2]; 1.5 mg/d + ADT) was −2.1, the “LS mean change from baseline to week 6, HAMD-17 total score” value ([2]; 3 mg/d + ADT) was −11.9 and the “LSMD vs placebo, HAMD-17” value ([2]; 3 mg/d + ADT) was −1.2. For the same compound, the “Weight change from baseline, mean (SD)” value ([3]; 1.5 mg + ADT, n = 252) was 0.68 (2.5) kg, the “Weight increase ≥7% from baseline” value ([3]; 1.5 mg + ADT, n = 252) was 10 (4.0) n (%) and the “Weight change from baseline, mean (SD)” value ([3]; 3 mg + ADT, n = 252) was 0.78 (2.8) kg. For the same compound, the “Changes in weight at the end of treatment” value ([3]; all treatment groups) was less than 1 kg.
